From PMC12567248 (Pharmaceutics, 2025)
Where two headings read alike, the source gives them in different places.

Key:
[1] = Oral and intraperitoneal bioavailability, syringic acid in blood; format: in vivo, Sprague Dawley rats; details: Sprague Dawley, rat, serum; for AUC(0-t): read-out: AUC0–72 (converted)
Experimental: (§1) The reduction in the dosing for the intraperitoneal route is to prevent abdominal distress in the test animal post-administration.
After the given time points, the test animals were sedated using Zoletil 50 (50 mg tiletamine base, 50 mg zolazepam base, and 57.7 mg mannitol per mL) at a dose of […] before blood extraction using the cardiac puncture method. The blood was allowed to clot and centrifuged at 4000 rpm at 4 °C for 5 min to obtain the serum. The sera were mixed with an equal amount of methanol to precipitate proteins and centrifuged again to obtain the deproteinized sera. The procedure was repeated until no precipitation with methanol occurred. The protein-free sera were dried under reduced pressure for prior analysis using HPLC.
(§2) Samples were prepared using the mobile phase consisting of 80:20 water with 0.1% acetic acid: methanol. HPLC analysis was performed using a linear gradient elution at a flow rate of 1.0 mL min^−1. The gradient program started at 80:20 (water with 0.1% acetic acid: methanol) and linearly progressed to 40:60 over 10 min. The column oven temperature was maintained at 30 °C. Detection was carried out using a PDA detector set at 218 nm.

[2] = rabbits, printed as administered intravenously; cited from earlier work
[3] = Tissue distribution of syringic acid in liver and kidney; format: in vivo, Sprague Dawley rats; details: for Cmax / Tmax / half-life: Sprague Dawley, rat; for AUC0–72 / AUC0–∞: 100 mg kg^−1 syringic acid or equivalent amount in SYA@MIL-100(Fe)
Experimental: as §1
After the blood collection from the test animals, the animals were euthanized, and the organs, such as the liver and kidneys, were taken. The organs were pat-dried and weighed to determine the amount of NSS to be used for homogenization (1 mL of NSS per 700 mg of organ). The organs were homogenized and mixed with equal amounts of absolute ethanol. The mixture was centrifuged at 5000 rpm for 10 min. The serum samples were supplemented with an equal amount of absolute ethanol to facilitate the precipitation of proteins. This procedure was performed until no precipitation occurred. The supernatant was allowed to dry under reduced pressure before HPLC analysis.
as §2

Male Sprague Dawley Rats = test: Acute oral toxicity, OECD procedure 423; details: rat, in vivo
Experimental: Acute oral toxicity was analyzed in accordance with the OECD guidelines for testing chemical compounds using the acute toxic class method (OECD procedure 423). Prior to dosing, 1 mL of the blood was extracted from the test animals (Male Sprague Dawley Rats, 200–250 g) using the tail vein method and was submitted for alanine aminotransferase (ALT), aspartate aminotransferase (AST), and blood urea nitrogen (BUN), and creatinine level determinations for signs of liver and kidney damages, respectively. […] Since no test animals were recorded to show any signs of toxicity or death, an additional three test animals were given the same dose. […] After the 14 days of observation, the test animals were sedated using Zoletil 50 (50 mg tiletamine base, 50 mg zolazepam base, and 57.7 mg mannitol per mL) at a dose of 50 mg kg^−1 prior to blood extraction using the cardiac puncture method. The animals were euthanized using a carbon dioxide chamber. The blood samples were analyzed for liver and kidney functions. The major organs, such as the liver and kidneys of the test animals, were harvested for tissue mounting and histopathological analysis.

[4] = In vitro drug release study, sample and separation method, with release model fitting; format: physicochemical; details: 37.5 °C
Experimental: The release media used were ultrapure water, 0.1 N phosphate-buffered saline (PBS) pH 7.4 for simulated blood pH, PBS pH 6.8 for simulated intestinal fluid, and 0.1 N HCl pH 2.0 for simulated gastric fluid. […] The setup was stirred at 75 rpm at 37.5 ± 0.5 °C. […] A fresh amount of the media was used to compensate for the amount of the release media taken at every time point. The aliquots were centrifuged at 5000 rpm for 10 min. The supernatant liquid was stored for syringic acid quantification using HPLC analysis, while the pellets were returned to the setup. The cumulative amount of syringic acid released from the MIL-100(Fe) was utilized to predict and correlate the behavior of the in vitro release. The experimental data were fitted to five predictable models: zero-order, first-order, Higuchi, Korsmeyer–Peppas, and Hixson–Crowell models. Data fitting was performed by linear regression using Microsoft Excel. The correlation coefficient (r^2) was utilized as a criterion for selecting the best model that describes the release profile in the three media. An r^2 value close to 1 signifies the best correlation.

[5] = cited from earlier work

COc1cc(C(=O)O)cc(OC)c1O [Syringic Acid, 3,5-Dimethoxy-4-hydroxybenzoic acid]
Tmax ([1]; ip, 25 mg kg^−1): 0.933 h | half-life ([1]; ip, 25 mg kg^−1): 16.7 ± 6.83 h | AUC(0-t) ([1]; ip, 25 mg kg^−1): 72800 ng·h/mL | half-life ([1]; po, 100 mg/kg): 1.98 ± 0.513 h | AUC(0-t) ([1]; po, 100 mg/kg): 23600 ng·h/mL | absolute bioavailability [2]: 86.27% | Cmax ([3]; 100 mg kg^−1, kidney, oral, read-out: maximum concentration (Cmax)): 105000 ± 9790 ng/g | Cmax ([3]; 100 mg kg^−1, liver, oral): 163000 ng/g | Cmax ([3]; ip, 25 mg kg^−1, kidney, intraperitoneal, read-out: Cmax): 218000 ± 8730 ng/g | Cmax ([3]; ip, 25 mg kg^−1, liver, intraperitoneal, read-out: Cmax): 40100 ± 560 ng/g | Tmax ([3]; kidney, ip, 25 mg kg^−1): 0.402 h | half-life ([3]; kidney, ip, 25 mg kg^−1): 80.1 ± 54.5 h | Tmax ([3]; kidney, po, 100 mg/kg): 0.47 h | half-life ([3]; kidney, po, 100 mg/kg): 0.626 ± 0.0782 h | Cmax ([3]; kidney, po, 100 mg/kg, read-out: Cmax): 105000 ± 9790 ng/g | Tmax ([3]; liver, ip, 25 mg kg^−1): 0.412 h | half-life ([3]; liver, ip, 25 mg kg^−1): 30.9 ± 18.4 h | Tmax ([3]; liver, po, 100 mg/kg): 8.6 h | half-life ([3]; liver, po, 100 mg/kg): 38.1 ± 13.5 h | Cmax ([3]; liver, po, 100 mg/kg, read-out: Cmax): 16300 ± 3540 ng/g | AUC0–72 ([3]; kidney, oral): 77,103.33 ± 2531.03 μg min g^−1 | AUC0–∞ ([3]; kidney, oral): 78,035.27 ± 2458.81 μg min g^−1 | AUC0–72 ([3]; liver, oral): 32,000.33 ± 3544.16 μg min g^−1 | AUC0–∞ ([3]; liver, oral): 47,401.91 ± 8515.77 μg min g^−1 | BUN before administration (Male Sprague Dawley Rats): 14.71 ± 0.51 mg per dL | SGOT before administration (Male Sprague Dawley Rats): 337.30 ± 34.87 units per liter | SGPT before administration (Male Sprague Dawley Rats): 87.96 ± 14.9 units per liter | serum creatinine before administration (Male Sprague Dawley Rats): 0.58 ± 0.01 mg per dL | cumulative release of syringic acid ([4]; 0.1 N HCl, after 30 h): 110.99% | cumulative release of syringic acid ([4]; PBS pH 6.8, after 30 h): 110.93% | cumulative release of syringic acid ([4]; PBS pH 7.4, after 30 h): 117.55% | cumulative release of syringic acid ([4]; water, after 30 h): 94.67% | Cmax [5]: 4500 ± 40 ng/mL | Tmax [5]: 8 min | area under the curve [5]: 2010 ± 48.7 ng·h/mL
